Results on four molecules are retold here after publication PMC9036627, “Global update on the susceptibility of human influenza viruses to neuraminidase inhibitors, 2013–2014” (Antiviral research, 2015).

Assay [1] relates to neuraminidase (NA) of B/Yamagata-lineage viruses. The format is biochemical, influenza B/Yamagata-lineage virus.
In assay [2] the test system is neuraminidase (NA) of A(H1N1)pdm09 viruses. The format is biochemical, influenza A(H1N1)pdm09 virus.
The subject of assay [3] is neuraminidase (NA) of B/Victoria-lineage viruses. The format is biochemical, influenza B/Victoria-lineage virus.
Assay [4] deals with former seasonal A(H1N1) H275Y virus. Particulars: ref Kawai et al., 2009, Dharan et al., 2010, Matsuzaki et al., Saito et al.; cited from earlier work.
Assay [5] shares this test system. Particulars: ref Kawai et al., 2009, Dharan et al., 2010, Matsuzaki et al., Saito et al.; cited from earlier work. This is another data set of the same source.

In the case of `[H]/N=C(\N)N[C@H]1C=C(C(=O)O)O[C@@H]([C@H](OC)[C@H](O)CO)[C@@H]1NC(C)=O` [Laninamivir, laninamivir], the “effect of NA substitution on susceptibility” value in assay [1] is listed as “no effect”; in assay [2], “little or no effect”. In addition, in assay [2], the “Included in phenotypic analysis: inhibition category (HRI/RI/NI)” value was “RI (key: NI < 10-fold; RI 10 to 100-fold; HRI > 100-fold)”. Besides, the “inhibition category (HRI/RI/NI)” value in assay [3] is given as “HRI (key: NI < 5-fold; RI 5 to 50-fold; HRI > 50-fold)”.

As for `CCOC(=O)C1=C[C@@H](OC(CC)CC)[C@H](NC(C)=O)[C@@H](N)C1` [Oseltamivir, oseltamivir], the “inhibition category (HRI/RI/NI)” value in assay [1] and in assay [3] was “RI (key: NI < 5-fold; RI 5 to 50-fold; HRI > 50-fold)” throughout. The “inhibition category in vitro” value in assay [4] is given as “HRI (HRI > 100-fold)”. Moreover, the clinical resistance entry in assay [5] is on record as “clinically resistant”.

As to `CCC(CC)[C@H](NC(C)=O)[C@@H]1[C@H](O)[C@@H](C(=O)O)C[C@H]1N=C(N)N` [Peramivir, peramivir], the “inhibition category in vitro” value in assay [4] was “HRI (HRI > 100-fold)”. For the same molecule, the “inhibition category (HRI/RI/NI)” value in assay [3] was “HRI (key: NI < 5-fold; RI 5 to 50-fold; HRI > 50-fold)”.

For `CC(=O)N[C@H]1[C@H]([C@H](O)[C@H](O)CO)OC(C(=O)O)=C[C@@H]1N=C(N)N` [Zanamivir, zanamivir], the “effect of NA substitution on susceptibility” value in assay [1] is “no effect”; in assay [2] it was “little or no effect”. In assay [3], the “inhibition category (HRI/RI/NI)” value is on record as “HRI (key: NI < 5-fold; RI 5 to 50-fold; HRI > 50-fold)”.
